# Source: US20170226552A1, “METHODS FOR MODULATING PROTEIN GLY[…] OF R[…] THERAPEUTICS USING COBALT” (AbbVie Inc., priority 2014, published 2017)
# Key:
# Format in all cases: cell-based, Chinese Hamster
# [1] = test system: Cell Line 1 (CHO cell line expressing Antibody 1); assay: Cell Line 1 3 L laboratory-scale bioreactor culture: harvest titer of Antibody 1; settings: Cell Line 1, 3 L bioreactor, 50 μM CoCl2
# Experimental: (§1) Two recombinant Chinese Hamster Ovary (CHO) cell lines expressing two different recombinant glycoproteins were evaluated in 2 different culture vessels (shaker flasks and 3 L laboratory scale bioreactors). Cell Line 1 expressed humanized Antibody 1, and Cell Line 2 expressed Dual Variable Domain Immunoglobulin 1 (DVD1). Antibody 1 was an IgG1 glycoprotein, and DVD1 was an immunoglobulin glycoprotein with two variable domains as documented previously (Wu C. et al., (2007) Nat Biotechnol 25(11):1290-7).
# (§2) Both cells lines were of CHO DUX-B11 origin based on a dhfr (dihydrofolate reductase) expression system. […]
# Antibody titers were measured from crude cell culture harvests on a Poros A™ (Life Technologies, Carlsbad, Calif.) affinity column using an HPLC system operating with a low pH, step elution gradient with detection at 280 nm. […]
# 3 L scale-down model bioreactors were utilized to verify the impact of CoCl2 on the resulting protein glycosylation profiles in Cell Line 1. Cell culture process performance indicators were monitored and measured throughout the respective cultures. Viable cell density, cell viability, harvest titer, and harvest N-glycan oligosaccharide data was measured and reported. […]
# [2] = test system: Cell Line 1 (CHO cell line expressing Antibody 1); assay: Cell Line 1 3 L laboratory-scale bioreactor culture: N-glycan oligosaccharide profile of Antibody 1
# Experimental: as §1, §2
# (§3) Approximately 200 μg of Protein A purified samples from Cell Lines 1 and 2 were treated with N-glycanase at 37° C. for an overnight duration to remove the N-glycans from the protein. […] Following the derivatization step, the excess dye was removed using clean up cartridges and the samples were analyzed using normal phase HPLC with fluorescent detection. […] The labeled glycans were detected using a fluorescence detector with an excitation wavelength of 330 nm and an emission wavelength of 420 nm.
# 3 L scale-down model bioreactors were utilized to verify the impact of CoCl2 on the resulting protein glycosylation profiles in Cell Line 1. Cell culture process performance indicators were monitored and measured throughout the respective cultures. […]
# [3] = test system: Cell Line 2 (CHO cell line expressing DVD1); assay: Cell Line 2 shake flask fedbatch culture: viable cell density and cell viability (trypan blue exclusion)
# Experimental: as §1
# (§4) Both cells lines were of CHO DUX-B11 origin based on a dhfr (dihydrofolate reductase) expression system. All cultures utilized the same chemically defined basal media (CDBM), and chemically-defined feed media (CDFM), except Cell Linel utilized a CDFM that was enriched at a 50% higher relative concentration. Each of the experimental conditions were supplemented with cobalt chloride (Sigma-Aldrich, St. Louis, Mo.) to evaluate its potential impact on the resulting N-glycan oligosaccharide profile. In preparation of the cultures, the cell lines were expanded through separate seed train inoculums to generate enough cell biomass for inoculation of multiple cultures. Process conditions utilized during the cultures were similar between each experimental condition and the respective non-cobalt supplemented control condition (Table 1).
# (§5) Viable cell density (VCD) and cell viability values were measured through trypan blue exclusion via Cedex automated cell counters (Roche Applied Science, Indianapolis, Ind.), glucose and lactate values were measured with a ABL-805 (Radiometer Medical, Denmark) blood gas analyzer. Offline pH, dissolved oxygen (DO), and pCO2 measurements were also performed with a ABL-805 (Radiometer Medical, Denmark) blood gas analyzer. Osmolality was measured on a Multi-Osmette 2430 osmometer (Precision Systems, Natick, Mass.).
# [4] = test system: Cell Line 1 (CHO cell line expressing Antibody 1); assay: Cell Line 1 shake flask fedbatch culture: N-glycan oligosaccharide profile of Antibody 1
# Experimental: as §1
# as §4, with “1). […]” for “1).”
# as §3
# [5] = test system: Cell Line 2 (CHO cell line expressing DVD1); assay: Cell Line 2 shake flask fedbatch culture: harvest titer of DVD 1 (Poros A HPLC)
# Experimental: as §1, §4
# (§6) Antibody titers were measured from crude cell culture harvests on a Poros A™ (Life Technologies, Carlsbad, Calif.) affinity column using an HPLC system operating with a low pH, step elution gradient with detection at 280 nm. Absolute concentrations were assigned with respect to reference standard calibration curves.
# [6] = test system: Cell Line 2 (CHO cell line expressing DVD1); assay: Cell Line 2 shake flask fedbatch culture: N-glycan oligosaccharide profile of DVD1
# Experimental: as §1, §4
# Purified antibodies subjected to additional analytical characterization were purified using MabSelect™ Protein A (GE Healthcare, Piscataway, N.J.) using a low pH, step elution gradient, followed by buffer exchange using Spin Concentrator X UF columns (Corning Lifesciences, Tewksbury, Mass.), or equivalent, according to the manufacturer's recommended procedure.
# Approximately 200 μg of Protein A purified samples from Cell Lines 1 and 2 were treated with N-glycanase at 37° C. for an overnight duration to remove the N-glycans from the protein. The protein was precipitated and the supernatant was taken for subsequent chemical derivatization of the reducing end of the released glycans with 2-aminobenzamide (2-AB) dye. Following the derivatization step, the excess dye was removed using clean up cartridges and the samples were analyzed using normal phase HPLC with fluorescent detection. Mobile phase A was 100% acetonitrile and mobile phase B was 50 mM ammonium formate at pH 4.4. The glycans were eluted from a polyamide column (Prozyme, Hayward, Calif.) using a shallow gradient. The labeled glycans were detected using a fluorescence detector with an excitation wavelength of 330 nm and an emission wavelength of 420 nm.
# [7] = test system: Cell Line 1 (CHO cell line expressing Antibody 1); assay: Cell Line 1 shake flask fedbatch culture: harvest titer of Antibody 1 (Poros A HPLC)
# Experimental: as §1, §4, §6
# [8] = test system: Cell Line 1 (CHO cell line expressing Antibody 1); assay: Cell Line 1 shake flask fedbatch culture: viable cell density and cell viability (trypan blue exclusion)
# Experimental: as §1, §4, §5
# [9] = test system: Cell Line 1 (CHO cell line expressing Antibody 1); assay: Cell Line 1 3 L laboratory-scale bioreactor culture: cell culture performance (VCD, viability, glucose, lactate, osmolality); settings: Cell Line 1, 3 L bioreactor, 50 μM CoCl2
# Experimental: as §1, §4, §5
# 3 L scale-down model bioreactors were utilized to verify the impact of CoCl2 on the resulting protein glycosylation profiles in Cell Line 1. Cell culture process performance indicators were monitored and measured throughout the respective cultures. Viable cell density, cell viability, harvest titer, and harvest N-glycan oligosaccharide data was measured and reported. FIG. 4 highlights the cell culture performance results observed through the use of 50 μM CoCl2 targeted supplementation into the CDBM and CDFM. Similar to the shake flask results, there was a modest drop in the viable cell density profile (FIG. 4A), but no change in the viability profile in the 50 μM CoCl2 supplemented culture (FIG. 4B). […] Similar to the shake flask results using 50 μM CoCl2, there was a nominal drop in the final harvest titer with the cobalt supplemented culture achieving a final harvest titer 10% below that of the unsupplemented control (FIG. 4F).
# [10] = Cell Line 2, shake flask, 100 μM cobalt
# [11] = Cell Line 2, shake flask, 1-100 μM CoCl2
smiles,measurement,setting,value
"[Cl-].[Cl-].[Co+2] [CoCl2, cobalt (II) chloride]",final harvest titer below that of the unsupplemented control,[1],10%
same,increase in NA1F species vs unsupplemented control,"[2]; Cell Line 1, 3 L bioreactor, 50 μM CoCl2",approximately 8%
same,maximum absolute percentage increase in galactosylated N-glycans relative to the unsupplemented control,"[2]; Cell Line 1, 3 L scale bioreactors",8%
same,concentration up to which there was a negligible impact on cell growth,[3]; Cell Line 2,25 µM
same,peak VCD compared to the control,"[3]; Cell Line 2, shake flask, 1, 5, and 25 μM",approximately similar
same,peak VCD,"[3]; Cell Line 2, shake flask, cobalt 50 μM in CDBM and CDFM",approximately 10.6×10^6 cells/mL
same,peak VCD,"[3]; Cell Line 2, shake flask, cobalt 100 μM in CDBM and CDFM",~6.7×10^6 cells/mL
same,cell viability over time and at harvest,"[3]; Cell Line 2, shake flask, higher cobalt media concentrations, after Day 6",higher cell viability
same,change in relative abundance of NGA2F-GlcNAc vs unsupplemented control,[4]; 1-100 μM CoCl2,statistically significant decreases
same,change in NA2F species vs unsupplemented control,"[4]; 1-100 μM CoCl2, much lower relative amount than NA1F",increased
same,change in NA1F species vs unsupplemented control,"[4]; concentration-dependent, 1-100 μM CoCl2",increase
same,concentration up to which there was a negligible impact on recombinant protein productivity,[5]; Cell Line 2,5 µM
same,decrease in productivity (harvest titer of DVD 1) vs control,"[5]; Cell Line 2, shake flask, 25 μM cobalt",20%
same,decrease in productivity (harvest titer of DVD 1) vs control,"[5]; Cell Line 2, shake flask, 50 μM cobalt",35%
same,decrease in productivity (harvest titer of DVD 1) vs control,[5]; [10],47%
same,impact on recombinant antibody productivity (harvest titer of DVD 1),"[5]; Cell Line 2, shake flask, 1 and 5 μM cobalt",negligible impact
same,increase in NA1F glycans vs unsupplemented control,[6]; [10],6.2%
same,change in relative abundance of NGA2F-GlcNAc vs unsupplemented control,[6]; [11],statistically significant decreases
same,change in relative abundance of high mannose glycans vs unsupplemented control,[6]; [11],statistically significant decreases
same,change in NA2F species vs unsupplemented control,"[6]; Cell Line 2, shake flask, 1-100 μM CoCl2, much lower relative amount than NA1F",increased
same,maximum absolute percentage increase in galactosylated N-glycans relative to the unsupplemented control,"[6]; Cell Line 2, shaker flask cultures",6%
same,concentration up to which there was a negligible impact on recombinant protein productivity,[7]; Cell Line 1,50 µM
same,drop in productivity (harvest titer of Antibody 1) vs control,"[7]; Cell Line 1, shake flask, 100 μM cobalt",21%
same,impact on recombinant antibody productivity (harvest titer of Antibody 1),"[7]; Cell Line 1, shake flask, 1, 5, 25, and 50 μM cobalt",negligible impact
same,concentration up to which there was a negligible impact on cell growth,[8]; Cell Line 1,50 µM
same,peak VCD compared to the control,"[8]; Cell Line 1, shake flask, 1, 5, and 25 μM",approximately similar
same,peak VCD,"[8]; Cell Line 1, shake flask, cobalt 50 μM in CDBM and CDFM",approximately 9.4×10^6 cells/mL
same,peak VCD,"[8]; Cell Line 1, shake flask, cobalt 100 μM in CDBM and CDFM",~7.0×10^6 cells/mL
same,cell viability at harvest compared to the unsupplemented control,"[8]; Cell Line 1, shake flask, each cobalt concentration evaluated (1-100 μM), harvest Day 14",slightly higher cell viability
same,glucose levels in the culture media vs unsupplemented control over time,[9],approximately similar
same,higher lactate concentration in culture media vs unsupplemented control,[9],≤ 0.5 g/L
same,osmolality levels vs unsupplemented control,[9],slightly elevated
same,viability profile vs unsupplemented control,[9],no change
same,viable cell density profile vs unsupplemented control,[9],modest drop
